Results as given in patent publication US20080096861A1, “Chemical Compounds” (SMITHKLINE BEECHAM CORPORATION, priority 2004, published 2008).

Test system: HIV-1 IIIB
Assay: HOS HIV-1 infectivity assay
Assay type: cell-based
Conditions: Human immunodeficiency virus 1, IIIB; as determined by the infectivity assay; strain not stated in Table 2; read-out: Activity Level
Method: Compounds were profiled against two HIV-1 viruses, the M-tropic (CCR5 utilizing) Ba-L strain and the T-tropic (CXCR4 utilizing) IIIB strain. Both viruses were propagated in human peripheral blood lymphocytes. Compounds were tested for there ability to block infection of the HOS cell line (expressing hCXCR4/hCCR5/hCD4/pHIV-LTR-luciferase) by either HIV-1 Ba-L or HIV-1 IIIB. Compound cytotoxicity was also examined in the absence of virus addition.
HOS cells (expressing hCXCR4/hCCR5/hCD4/pHIV-LTR-luciferase) were harvested and diluted in Dulbeccos modified Eagles media supplemented with 2% FCS and non-essential amino acid to a concentration of 60,000 cells/ml. The cells were plated into 96-well plates (100 ul per well) and the plates were placed in a tissue culture incubator (37° C.; 5% CO2/95% air) for a period of 24 h.
Subsequently, 50 ul of the desired drug solution (4 times the final concentration) was added to each well and the plates were returned to the tissue culture incubator (37° C.; 5% CO2/95% air) for 1 h. Following this incubation 50 ul of diluted virus was added to each well (approximately 2 million RLU per well of virus). The plates were returned to the tissue culture incubator (37° C.; 5% CO2/95% air) and were incubated for a further 96 h.
Following this incubation the endpoint for the virally infected cultures was quantified following addition of Steady-Glo Luciferase assay system reagent (Promega, Madison, Wis.). Cell viability or non-infected cultures was measured using a CellTiter-Glo luminescent cell viability assay system (Promega, Madison, Wis.). All luminescent readouts are performed on a Topcount luminescence detector (Packard, Meridien, Conn.).

Row | Compound | IC50 [nM]
1 | CN(Cc1nc2ccccc2n1C[C@H]1CCCN(C(=N)N)C1)[C@@H]1CCCc2cccnc21 [Example 88, (3R)-3-{[2-({Methyl[(8R)-5,6,7,8-tetrahydro-8-quinolinyl]amino}methyl)-1H-benzimidazol-1-yl]methyl}-1-piperidinecarboximidamide] | 100 to 500
2 | CN1CCC[C@H](Cn2c(CN(C)[C@H]3CCCc4cccnc43)nc3ccccc32)C1 [Example 39i, (8S)—N-Methyl-N-[(1-{[(3S)-1-methyl-3-piperidinyl]methyl}-1H-benzimidazol-2-yl)methyl]-5,6,7,8-tetrahydro-8-quinolinamine] | < 100
3 | CN(Cc1nc2ccccc2n1C[C@@H]1CCCN(C(=N)N)C1)[C@@H]1CCCc2cccnc21 [Example 86, (3S)-3-{[2-({Methyl[(8R)-5,6,7,8-tetrahydro-8-quinolinyl]amino}methyl)-1H-benzimidazol-1-yl]methyl}-1-piperidinecarboximidamide] | 100 to 500
4 | CN(Cc1nc2ccccc2n1[C@H]1CC[C@H](N(C)C)CC1)C1CCCc2cccnc21 (stereo partly drawn) [Example 35, N-({1-[trans-4-(Dimethylamino)cyclohexyl]-1H-benzimidazol-2-yl}methyl)-N-methyl-5,6,7,8-tetrahydro-8-quinolinamine] | 100 to 500
5 | CN(Cc1nc2ccccc2n1CCc1cn(C)cn1)C1CCCc2cccnc21 (centres unmarked) [Example 72, N-Methyl-N-({1-[2-(1-methyl-1H-imidazol-4-yl)ethyl]-1H-benzimidazol-2-yl}methyl)-5,6,7,8-tetrahydro-8-quinolinamine] | 500 to 10000
6 | CN1CCC[C@H]1CN1CCC[C@H](Cn2c(CN(C)[C@H]3CCCc4cccnc43)nc3ccccc32)C1 [Example 106, (8S)—N-Methyl-N-({1-[((3S)-1-{[(2S)-1-methyl-2-pyrrolidinyl]methyl}-3-Piperidinyl)methyl]-1H-benzimidazol-2-yl}methyl)-5,6,7,8-tetrahydro-8-quinolinamine] | < 100
7 | CC(C)N1CCC[C@H](Cn2c(CN(CCCO)[C@H]3CCCc4cccnc43)nc3ccccc32)C1 [Example 100, 3-{[(1-{[(3S)-1-(1-Methylethyl)-3-piperidinyl]methyl}-1H-benzimidazol-2-yl)methyl][(8S)-5,6,7,8-tetrahydro-8-quinolinyl]amino}-1-propanol] | < 100
8 | CC(C)CN1CCC[C@H](Cn2c(CN(C)[C@H]3CCCc4cccnc43)nc3ccccc32)C1 [Example 44, (8S)—N-Methyl-N-[(1-{[(3S)-1-(2-methylpropyl)-3-piperidinyl]methyl}-1H-benzimidazol-2-yl)methyl]-5,6,7,8-tetrahydro-8-quinolinamine] | < 100
9 | CN(C)Cc1cccc(Cn2c(CN(C)C3CCCc4cccnc43)nc3ccccc32)c1 (centres unmarked) [Example 48, N-{[1-({3-[(Dimethylamino)methyl]phenyl}methyl)-1H-benzimidazol-2-yl]methyl}-N-methyl-5,6,7,8-tetrahydro-8-quinolinamine] | 100 to 500
10 | CC(C)CCN1CCC[C@@H](Cn2c(CN(C)[C@@H]3CCCc4cccnc43)nc3ccccc32)C1 [Example 78, (8R)—N-Methyl-N-[(1-{[(3R)-1-(3-methylbutyl)-3-piperidinyl]methyl}-1H-benzimidazol-2-yl)methyl]-5,6,7,8-tetrahydro-8-quinolinamine] | 100 to 500
11 | CN(Cc1nc2ccccc2n1C[C@@H]1CCCNC1)[C@H]1CCCc2cccnc21 [Example 75e, (8S)—N-Methyl-N-({1-[(3R)-3-piperidinylmethyl]-1H-benzimidazol-2-yl}methyl)-5,6,7,8-tetrahydro-8-quinolinamine] | < 100
12 | NCCCCn1c(CN(Cc2ccccc2)C2CCCc3cccnc32)nc2ccccc21 (centres unmarked) [Example 55, N-{[1-(4-Aminobutyl)-1H-benzimidazol-2-yl]methyl}-N-(Phenylmethyl)-5,6,7,8-tetrahydro-8-quinolinamine] | 500 to 10000
13 | CC(C)N(Cc1nc2ccccc2n1CCCN(C)C)C1CCCc2cccnc21 (centres unmarked) [Example 60, N-({1-[3-(Dimethylamino)propyl]-1H-benzimidazol-2-yl}methyl)-N-(1-methylethyl)-5,6,7,8-tetrahydro-8-quinolinamine] | < 100
14 | CN(Cc1nc2ccccc2n1CC(=O)NCCN)C1CCCc2cccnc21 (centres unmarked) [Example 31, N-(2-Aminoethyl)-2-(2-{[methyl(5,6,7,8-tetrahydro-8-quinolinyl)amino]methyl}-1H-benzimidazol-1-yl)acetamide] | 100 to 500
15 | CN(Cc1nc2ccccc2n1C[C@H]1CCCN(Cc2ccccc2)C1)[C@H]1CCCc2cccnc21 [Example 43, (8S)—N-Methyl-N-[(1-{[(3S)-1-(phenylmethyl)-3-piperidinyl]methyl}-1H-benzimidazol-2-yl)methyl]-5,6,7,8-tetrahydro-8-quinolinamine] | < 100

Further lines, results first:

Row | IC50 [nM] | Compound
16 | < 100 | CN(Cc1nc2ccccc2n1C[C@H]1CCCN(/C(N)=N/C#N)C1)[C@H]1CCCc2cccnc21 [Example 91, (3R)—N-Cyano-3-{[2-({methyl[(8S)-5,6,7,8-tetrahydro-8-quinolinyl]amino}methyl)-1H-benzimidazol-1-yl]methyl}-1-piperidinecarboximidamide]
17 | < 100 | CC(C)CCN1CCC[C@H](Cn2c(CN(C)[C@@H]3CCCc4cccnc43)nc3ccccc32)C1 [Example 82, (8R)—N-Methyl-N-[(1-{[(3S)-1-(3-methylbutyl)-3-piperidinyl]methyl}-1H-benzimidazol-2-yl)methyl]-5,6,7,8-tetrahydro-8-quinolinamine]
18 | 100 to 500 | CN(Cc1nc2ccccc2n1CCc1ccccn1)C1CCCc2cccnc21 (centres unmarked) [Example 37, N-methyl-N-([1-[2-(2-pyridinyl)ethyl]-1H-benzimidazol-2-yl]methyl)-5,6,7,8-tetrahydro-8-quinolinamine]
19 | 100 to 500 | CCCN/C(=N\C#N)N1CCC[C@H](Cn2c(CN(C)[C@H]3CCCc4cccnc43)nc3ccccc32)C1 [Example 90, (3R)—N-Cyano-3-{[2-({methyl[(8S)-5,6,7,8-tetrahydro-8-quinolinyl]amino}methyl)-1H-benzimidazol-1-yl]methyl}-N′-propyl-1-piperidinecarboximidamide]
20 | 500 to 10000 | CC(C)CCN(Cc1nc2ccccc2n1CC(C)(C)CN(C)C)C1CCCc2cccnc21 (centres unmarked) [Example 66, N-({1-[3-(Dimethylamino)-2,2-dimethylpropyl]-1H-benzimidazol-2-yl}methyl)-N-(3-methylbutyl)-5,6,7,8-tetrahydro-8-quinolinamine]
21 | 500 to 10000 | CN(C)Cc1ccccc1-n1c(CN(C)C2CCCc3cccnc32)nc2ccccc21 (centres unmarked) [Example 74, N-[(1-{2-[(Dimethylamino)methyl]phenyl}-1H-benzimidazol-2-yl)methyl]-N-methyl-5,6,7,8-tetrahydro-8-quinolinamine]
22 | 500 to 10000 | CN(Cc1nc2ccccc2n1CC(=O)N1CCNCC1)C1CCCc2cccnc21 (centres unmarked) [Example 32, N-Methyl-N-({1-[2-oxo-2-(1-piperazinyl)ethyl]-1H-benzimidazol-2-yl}methyl)-5,6,7,8-tetrahydro-8-quinolinamine]
23 | < 100 | CN(Cc1nc2ccccc2n1C[C@H]1CCCNC1)[C@H]1CCCc2cccnc21 [Example 39h, (8S)—N-Methyl-N-({1-[(3S)-3-piperidinylmethyl]-1H-benzimidazol-2-yl}methyl)-5,6,7,8-tetrahydro-8-quinolinamine]
24 | < 100 | CN(Cc1nc2ccccc2n1C[C@@H]1CCCN(C(=N)N)C1)[C@H]1CCCc2cccnc21 [Example 87, (3S)-3-{[2-({Methyl[(8S)-5,6,7,8-tetrahydro-8-quinolinyl]amino}methyl)-1H-benzimidazol-1-yl]methyl}-1-piperidinecarboximidamide]
25 | 100 to 500 | CC(C)CCN(Cc1nc2ccccc2n1CCCCN)C1CCCc2cccnc21 (centres unmarked) [Example 54, N-{[1-(4-Aminobutyl)-1H-benzimidazol-2-yl]methyl}-N-(3-methylbutyl)-5,6,7,8-tetrahydro-8-quinolinamine]
26 | < 100 | CC(C)CCNCCCn1c(CN(C)C2CCCc3cccnc32)nc2ccccc21 (centres unmarked) [Example 64, N-Methyl-N-[(1-{3-[(3-methylbutyl)amino]propyl}-1H-benzimidazol-2-yl)methyl]-5,6,7,8-tetrahydro-8-quinolinamine]
27 | < 100 | CN(C)CCN1CCC[C@H](Cn2c(CN(C)[C@H]3CCCc4cccnc43)nc3ccccc32)C1 [Example 105, (8S)—N-{[1-({(3S)-1-[2-(Dimethylamino)ethyl]-3-piperidinyl}methyl)-1H-benzimidazol-2-yl]methyl}-N-methyl-5,6,7,8-tetrahydro-8-quinolinamine]
28 | < 100 | CN(Cc1nc2ccccc2n1C[C@H]1CCCN(Cc2ccccn2)C1)[C@H]1CCCc2cccnc21 [Example 40, (8S)—N-Methyl-N-[(1-{[(3S)-1-(2-pyridinylmethyl)-3-piperidinyl]methyl}-1H-benzimidazol-2-yl)methyl]-5,6,7,8-tetrahydro-8-quinolinamine]
29 | < 100 | CN(Cc1nc2ccccc2n1C[C@H]1CCCN(Cc2ncc[nH]2)C1)[C@H]1CCCc2cccnc21 [Example 45, (8S)—N-[(1-{[(3S)-1-(1H-Imidazol-2-ylmethyl)-3-piperidinyl]methyl}-1H-benzimidazol-2-yl)methyl]-N-methyl-5,6,7,8-tetrahydro-8-quinolinamine]
